US6620828B2, “Thiazole compounds and pharmaceutical compositions for inhibiting protein kinases and methods for their use” (Agouron Pharmaceuticals, Inc., priority 1999, dated 2003)

Key:
Assay type in all cases: biochemical
CDK2/Cyclin A complex = CDK2/Cyclin A complex (Homo sapiens, UniProt P24941); assay: CDK2/Cyclin A assay; conditions: 1.0 μM; combinatorial library compounds
Method in brief: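 Radiometric assay: 150 nM CDK2/cyclin A (insect-cell CDK2, truncated cyclin A) phosphorylates His-tagged Rb fragment (residues 386-928) with 25 μM ATP plus [32P]ATP, pH 7.4 HEPES, 2% DMSO, 30 °C for 20 min. Filter-captured product counted by phosphorimager; apparent Ki from competitive or tight-binding inhibition fits.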

[1] = target: T1, phosphorylated VEGF-R2Δ50 (FLVK-P) (Homo sapiens, UniProt P35968, DEL940-989/E990V); assay: VEGF-R2 coupled spectrophotometric (FLVK-P) assay; conditions: read-out: VEGF % inhibition at 20 μM, 20 μM; combinatorial library compounds
T1 construct: VEGF-R2Δ50 contains residues 806-939 and 990-1171; made in house; host or cells: baculovirus/insect cells
T1 sequence (P35968 with tags, fused parts or gaps DEL940-989/E990V limits assumed): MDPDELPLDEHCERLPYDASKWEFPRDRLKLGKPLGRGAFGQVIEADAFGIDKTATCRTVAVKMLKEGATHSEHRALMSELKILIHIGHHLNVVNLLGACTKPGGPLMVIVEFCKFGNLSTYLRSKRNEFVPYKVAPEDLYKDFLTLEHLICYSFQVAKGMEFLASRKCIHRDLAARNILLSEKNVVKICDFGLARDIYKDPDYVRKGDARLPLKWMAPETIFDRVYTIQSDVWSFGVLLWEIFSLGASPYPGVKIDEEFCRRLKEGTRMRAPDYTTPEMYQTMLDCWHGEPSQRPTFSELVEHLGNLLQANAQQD
Method in brief: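 Baculovirus-expressed human VEGF-R2Δ50 (residues 806-939/990-1171, E990V) was autophosphorylated with 3 mM ATP, 40 mM MgCl2 for 2 h at 4° C. ADP formation was coupled via PK/LDH to NADH oxidation, read at 340 nm, with 5.1 mM poly(E4Y1), 1 mM ATP, 25 mM MgCl2, Hepes pH 7.5. Ki came from activity across compound concentrations.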

CDK4/Cyclin D3 complex = target: T2, CDK4/Cyclin D3 complex (Homo sapiens, UniProt P11802); assay: CDK4/Cyclin D assay; conditions: 1.0 μM; combinatorial library compounds
T2 construct: made in house; host or cells: insect cells co-infected with baculovirus vectors
T2 sequence (P11802 whole entry): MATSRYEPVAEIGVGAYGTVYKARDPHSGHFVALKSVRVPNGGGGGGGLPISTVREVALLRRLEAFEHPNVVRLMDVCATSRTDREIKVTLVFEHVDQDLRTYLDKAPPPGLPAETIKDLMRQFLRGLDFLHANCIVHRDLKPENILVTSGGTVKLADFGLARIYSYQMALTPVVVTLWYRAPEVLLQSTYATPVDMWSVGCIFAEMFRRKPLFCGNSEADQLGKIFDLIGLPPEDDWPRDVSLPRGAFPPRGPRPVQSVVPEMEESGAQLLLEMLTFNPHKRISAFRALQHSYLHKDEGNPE
T2 sequence (P30281 whole entry partner): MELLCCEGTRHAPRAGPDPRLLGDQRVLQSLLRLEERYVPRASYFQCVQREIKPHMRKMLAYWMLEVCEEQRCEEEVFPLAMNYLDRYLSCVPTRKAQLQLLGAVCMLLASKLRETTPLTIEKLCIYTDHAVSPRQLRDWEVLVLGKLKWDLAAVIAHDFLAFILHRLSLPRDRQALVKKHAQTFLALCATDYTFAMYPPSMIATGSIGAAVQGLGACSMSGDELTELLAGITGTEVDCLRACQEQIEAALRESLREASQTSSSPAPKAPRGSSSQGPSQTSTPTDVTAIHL
Method: CDK4/Cyclin D Construct for Assay: A complex of human CDK4 and cyclin D3, or a complex of cyclin DI and a fusion protein of human CDK4 and glutathione-S-transferase (GST-CDK4), was purified using traditional biochemical chromatographic techniques from insect cells that had been co-infected with the corresponding baculovirus expression vectors.
CDK2/Cyclin A and CDK4/Cyclin D Assays
Cyclin-dependent kinase activity was measured by quantifying the enzyme-catalyzed, time-dependent incorporation of radioactive phosphate from [^32P]ATP into a recombinant fragment of the retinoblastoma protein. Unless noted otherwise, assays were performed in 96-well plates in a total volume of 50 μL, in the presence of 10 mM HEPES (N-[2-hydroxyethyl]piperazine-N′-[2-ethanesulfonic acid]) (pH 7.4), 10 mM MgCl2, 25 μM adenosine triphosphate (ATP), 1 mg/mL ovalbumin, 5 μg/mL leupeptin, 1 mM dithiothreitol, 10 mM β-glycerophosphate, 0.1 mM sodium vanadate, 1 mM sodium fluoride, 2.5 mM ethylene glycol-bis(β-aminoethyl ether)-N,N,N′N′-tetraacetic acid (EGTA), 2% (v/v) dimethylsulfoxide, and 0.03-0.2 μCi [^32P]ATP. The substrate (0.3-0.5 μg) was purified recombinant retinoblastoma protein fragment (Rb) (residues 386-928 of the native retinoblastoma protein; 62.3 kDa, containing the majority of the phosphorylation sites found in the native 106-kDa protein, as well as a tag of six histidine residues for ease of purification). Reactions were initiated with CDK2 (150 nM CDK2/Cyclin A complex) or CDK4 (50 nM CDK4/Cyclin D3 complex), incubated at 30° C., and terminated after 20 minutes by the addition of ethylenediaminetetraacetic acid EDTA) to 250 mM. The phosphorylated substrate was then captured on a nitrocellulose membrane using a 96-well filtration manifold, and unincorporated radioactivity was removed by repeated washing with 0.85% phosphoric acid. Radioactivity was quantified by exposing the dried nitrocellulose membranes to a phosphorimager. Apparent Ki values were measured by assaying enzyme activity in the presence of different compound concentrations and subtracting the background radioactivity measured in the absence of enzyme. The kinetic parameters (kcat, Km for ATP) were measured for each enzyme under the usual assay conditions by determining the dependence of initial rates on ATP concentration. The data were fit to an equation for competitive inhibition using Kaleidagraph (Synergy Software), or were fit to an equation for competitive tight-binding inhibition using the software KineTic (BioKin, Ltd.). Measured Ki values for known inhibitors against CDK4 and CDK2 agreed with published IC50 values. The specific activity of CDK4 was the same whether complexed to full-length cyclin D3 or the truncated Cyclin D3 construct; both complexes also yielded very similar Ki values for selected inhibitors.

FL-CHK1 = target: T3, FL-CHK1 (Homo sapiens, UniProt O14757); assay: CHK1 assay; conditions: 20 μM; combinatorial library compounds
T3 construct: C-terminally His-tagged full-length human CHK1 (FL-CHK1); 6xHis (C); made in house; host or cells: baculovirus/insect cells
T3 sequence (O14757 1-476): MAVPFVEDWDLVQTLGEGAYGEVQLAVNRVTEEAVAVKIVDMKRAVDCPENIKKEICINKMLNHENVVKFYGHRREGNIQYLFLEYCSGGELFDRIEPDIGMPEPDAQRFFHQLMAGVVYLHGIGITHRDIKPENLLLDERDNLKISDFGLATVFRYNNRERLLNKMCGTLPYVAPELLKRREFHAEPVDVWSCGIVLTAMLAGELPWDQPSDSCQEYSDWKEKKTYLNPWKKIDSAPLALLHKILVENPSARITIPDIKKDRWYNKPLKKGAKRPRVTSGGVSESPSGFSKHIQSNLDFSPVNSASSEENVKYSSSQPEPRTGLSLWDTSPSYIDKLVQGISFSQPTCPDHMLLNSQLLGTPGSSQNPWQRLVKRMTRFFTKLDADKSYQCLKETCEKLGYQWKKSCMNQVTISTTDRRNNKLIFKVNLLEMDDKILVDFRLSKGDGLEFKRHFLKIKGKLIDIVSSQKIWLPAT
Method in brief: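 Full-length human CHK1 with C-terminal 6×His tag, made in baculovirus/insect cells, 10 nM, phosphorylating 0.125 mM Syntide-2 with 0.15 mM ATP in 50 mM Tris pH 7.5, 25 mM MgCl2, 400 mM NaCl. PK/LDH-coupled NADH oxidation read at 340 nm. Ki from initial rates over varied compound concentrations.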

Nc1nc(Nc2ccc(S(N)(=O)=O)cc2)sc1-c1nc(-c2ccc(O)c(O)c2)cs1
inhibition at 1 µM (CDK2/Cyclin A complex): 55.9% | inhibition at 20 µM [1]: 49% | inhibition at 1 µM (CDK4/Cyclin D3 complex): 57.2% | inhibition at 20 µM (FL-CHK1): 28.5%

Nc1nc(Nc2ccc(S(N)(=O)=O)cc2)sc1-c1nc(-c2ccc3ccccc3c2)cs1
inhibition at 1 µM (CDK2/Cyclin A complex): 25.5% | inhibition at 20 µM [1]: 12% | inhibition at 1 µM (CDK4/Cyclin D3 complex): -8.9% | inhibition at 20 µM (FL-CHK1): 7.8%

Cc1cc(-c2csc(-c3sc(Nc4ccc(S(N)(=O)=O)cc4)nc3N)n2)cs1
inhibition at 1 µM (CDK2/Cyclin A complex): 68.2% | inhibition at 20 µM [1]: 34% | inhibition at 1 µM (CDK4/Cyclin D3 complex): 59.6% | inhibition at 20 µM (FL-CHK1): 26.6%

Nc1nc(Nc2ccc(S(N)(=O)=O)cc2)sc1-c1nc(-c2ccc(OC(=O)c3ccccc3)cc2)cs1
inhibition at 1 µM (CDK2/Cyclin A complex): 20.7% | inhibition at 20 µM [1]: 8% | inhibition at 1 µM (CDK4/Cyclin D3 complex): -27% | inhibition at 20 µM (FL-CHK1): 4.4%

Nc1nc(Nc2ccc(S(N)(=O)=O)cc2)sc1-c1nc(-c2ccc[nH]2)cs1
inhibition at 1 µM (CDK2/Cyclin A complex): 14.6% | inhibition at 20 µM [1]: 13% | inhibition at 1 µM (CDK4/Cyclin D3 complex): 39.7% | inhibition at 20 µM (FL-CHK1): 13.6%

Nc1nc(Nc2ccc(S(N)(=O)=O)cc2)sc1-c1nc(-c2ccc(F)c(F)c2)cs1
inhibition at 1 µM (CDK2/Cyclin A complex): 12.4% | inhibition at 20 µM [1]: 38% | inhibition at 1 µM (CDK4/Cyclin D3 complex): -5.3% | inhibition at 20 µM (FL-CHK1): 17.5%

Nc1nc(Nc2ccc(S(N)(=O)=O)cc2)sc1-c1nc(C2C=C([N+](=O)[O-])C=CC2)cs1 (centres unmarked)
inhibition at 1 µM (CDK2/Cyclin A complex): 17.8% | inhibition at 20 µM [1]: 30% | inhibition at 1 µM (CDK4/Cyclin D3 complex): -28.6% | inhibition at 20 µM (FL-CHK1): 10.8%

Nc1nc(Nc2ccc(S(N)(=O)=O)cc2)sc1-c1nc(-c2ccc(Cl)c(Cl)c2)cs1
inhibition at 1 µM (CDK2/Cyclin A complex): 1.3% | inhibition at 20 µM [1]: 9% | inhibition at 1 µM (CDK4/Cyclin D3 complex): -3.1% | inhibition at 20 µM (FL-CHK1): 11.7%

Cc1cc(-c2csc(-c3sc(Nc4ccc(S(N)(=O)=O)cc4)nc3N)n2)cc(C)c1O
inhibition at 1 µM (CDK2/Cyclin A complex): 40.7% | inhibition at 20 µM [1]: 25% | inhibition at 1 µM (CDK4/Cyclin D3 complex): 46% | inhibition at 20 µM (FL-CHK1): 13.4%

Nc1nc(Nc2ccc(S(N)(=O)=O)cc2)sc1-c1nc(-c2c(Cl)c(Cl)nc(Cl)c2Cl)cs1
inhibition at 1 µM (CDK2/Cyclin A complex): 66.8% | inhibition at 20 µM [1]: 11% | inhibition at 1 µM (CDK4/Cyclin D3 complex): 58% | inhibition at 20 µM (FL-CHK1): 19.8%

Cc1ccc(-c2csc(-c3sc(Nc4ccc(S(N)(=O)=O)cc4)nc3N)n2)c(C)c1
inhibition at 1 µM (CDK2/Cyclin A complex): 19.6% | inhibition at 20 µM [1]: 50% | inhibition at 1 µM (CDK4/Cyclin D3 complex): -13.5% | inhibition at 20 µM (FL-CHK1): 0.2%

Nc1nc(Nc2ccc(S(N)(=O)=O)cc2)sc1-c1nc(-c2ccc(CC(=O)O)s2)cs1
inhibition at 1 µM (CDK2/Cyclin A complex): 51.6% | inhibition at 20 µM [1]: 11% | inhibition at 1 µM (CDK4/Cyclin D3 complex): 65% | inhibition at 20 µM (FL-CHK1): 11.3%

Nc1nc(Nc2ccc(S(N)(=O)=O)cc2)sc1-c1nc(-c2cccc(OC(=O)c3ccccc3)c2)cs1
inhibition at 1 µM (CDK2/Cyclin A complex): 37.2% | inhibition at 20 µM [1]: 43% | inhibition at 1 µM (CDK4/Cyclin D3 complex): -1.9% | inhibition at 20 µM (FL-CHK1): 6.8%

COc1cc(OC)c(-c2csc(-c3sc(Nc4ccc(S(N)(=O)=O)cc4)nc3N)n2)c(O)c1Cl
inhibition at 1 µM (CDK2/Cyclin A complex): 69.5% | inhibition at 20 µM [1]: 29% | inhibition at 1 µM (CDK4/Cyclin D3 complex): 62.5% | inhibition at 20 µM (FL-CHK1): 25.6%
